Data: patent US20250243189A1, “HERBICIDAL IMIDAZOLE-CONTAINING COMPOUNDS” (SYNGENTA CROP PROTECTION AG, priority 2022, published 2025)

Experiments:
Type in all cases: in vivo
Conditions in all cases: 250 g/ha, evaluated after 13 days, five-point scale
IPOHE [1] = assay: Post-emergence herbicidal glasshouse test
Experimental: (§1) Seeds of a variety of test species are sown in standard soil in pots Amaranthus retoflexus (AMARE), Echinochloa crus-galli (ECHCG), Setaria faberi (SETFA)). After cultivation for one day (pre-emergence) or after 8 days cultivation (post-emergence) under controlled conditions in a glasshouse (at 24/16° C., day/night; 14 hours light; 65% humidity), the plants are sprayed with an aqueous spray solution derived from the formulation of the technical active ingredient in acetone/water (50:50) solution containing 0.5% Tween 20 (polyoxyethelyene sorbitan monolaurate, CAS RN 9005-64-5). Compounds are applied at 250 g/ha unless otherwise stated. The test plants are then grown in a glasshouse under controlled conditions in a glasshouse (at 24/16° C., day/night; 14 hours light; 65% humidity) and watered twice daily. After 13 days for pre and post-emergence, the test is evaluated for the percentage damage caused to the plant. The biological activities are shown in the following table on a five-point scale (5=81-100%; 4=61-80%; 3=41-60%; 2=21-40%; 1=0-20%).

Setaria faberi (SETFA) [2] = assay: Post-emergence herbicidal glasshouse test
Experimental: as §1

AMAPA [3] = assay: Post-emergence herbicidal glasshouse test
Experimental: [Worded in the source for another organism; this organism is reported under the same test.] as §1

[4] = system: Echinochloa crus-galli (ECHCG); assay: Post-emergence herbicidal glasshouse test
Experimental: as §1

[5] = system: Amaranthus retoflexus (AMARE); assay: Post-emergence herbicidal glasshouse test
Experimental: as §1

IPOHE [6] = assay: Pre-emergence herbicidal glasshouse test
Experimental: as §1

Setaria faberi (SETFA) [7] = assay: Pre-emergence herbicidal glasshouse test
Experimental: as §1

AMAPA [8] = assay: Pre-emergence herbicidal glasshouse test
Experimental: [Worded in the source for another organism; this organism is reported under the same test.] as §1

[9] = system: Echinochloa crus-galli (ECHCG); assay: Pre-emergence herbicidal glasshouse test
Experimental: as §1

[10] = system: Amaranthus retoflexus (AMARE); assay: Pre-emergence herbicidal glasshouse test
Experimental: as §1

| Compound | percentage damage caused to the plant, IPOHE (IPOHE [1]) | percentage damage caused to the plant, SETFA (Setaria faberi (SETFA) [2]) | percentage damage caused to the plant, AMAPA (AMAPA [3]) | percentage damage caused to the plant, ECHCG [4] | percentage damage caused to the plant, AMARE [5] | percentage damage caused to the plant, IPOHE (IPOHE [6]) | percentage damage caused to the plant, SETFA (Setaria faberi (SETFA) [7]) | percentage damage caused to the plant, AMAPA (AMAPA [8]) | percentage damage caused to the plant, ECHCG [9] | percentage damage caused to the plant, AMARE [10] |
| --- | --- | --- | --- | --- | --- | --- | --- | --- | --- | --- |
| FC(F)(F)c1cn(Cc2ncc(Cl)cn2)c(-c2ccsc2Cl)n1 [Compound 1.025] | 3 (3=41-60%) | 4 (4=61-80%) | 3 (3=41-60%) | 4 (4=61-80%) | 4 (4=61-80%) | 4 (4=61-80%) | 5 (5=81-100%) | 5 (5=81-100%) | 5 (5=81-100%) | 5 (5=81-100%) |
| FC(F)(F)c1cn(Cc2ncc(Cl)cn2)c(-c2ccc(Cl)s2)n1 [Compound 1.001, 5-chloro-2-[[2-(5-chloro-2-thienyl)-4-(trifluoromethyl)imidazol-1-yl]methyl]pyrimidine] | 4 (4=61-80%) | 5 (5=81-100%) | 5 (5=81-100%) | 5 (5=81-100%) | 5 (5=81-100%) | 5 (5=81-100%) | 5 (5=81-100%) | 5 (5=81-100%) | 5 (5=81-100%) | 5 (5=81-100%) |
| FC(F)(F)c1cn(Cc2ncc(Cl)cn2)c(-c2ccsc2)n1 [Compound 1.030] | 4 (4=61-80%) | 5 (5=81-100%) | 5 (5=81-100%) | 4 (4=61-80%) | 5 (5=81-100%) | 4 (4=61-80%) | 5 (5=81-100%) | 5 (5=81-100%) | 5 (5=81-100%) | 5 (5=81-100%) |
| Cn1nccc1-c1nc(C(F)(F)F)cn1Cc1ncc(Cl)cn1 [Compound 1.005] | 4 (4=61-80%) | 5 (5=81-100%) | 5 (5=81-100%) | 5 (5=81-100%) | 5 (5=81-100%) | 5 (5=81-100%) | 5 (5=81-100%) | 5 (5=81-100%) | 5 (5=81-100%) | 5 (5=81-100%) |
| FC(F)(F)c1cn(Cc2ncc(Cl)cn2)c(-c2ccc(Br)s2)n1 [Compound 1.069] | 4 (4=61-80%) | 5 (5=81-100%) | 5 (5=81-100%) | 5 (5=81-100%) | 5 (5=81-100%) | 5 (5=81-100%) | 5 (5=81-100%) | 5 (5=81-100%) | 5 (5=81-100%) | 5 (5=81-100%) |
| FC(F)(F)c1cn(Cc2ncc(Cl)cn2)c(-c2cccs2)n1 [Compound 1.034] | 4 (4=61-80%) | 2 (2=21-40%) | 4 (4=61-80%) | 2 (2=21-40%) | 4 (4=61-80%) | 2 (2=21-40%) | 2 (2=21-40%) | 5 (5=81-100%) | 2 (2=21-40%) | 5 (5=81-100%) |
| FC(F)(F)c1cn(Cc2ncc(Cl)cn2)c(-c2cnc(Cl)s2)n1 [Compound 1.008] | 4 (4=61-80%) | 5 (5=81-100%) | 5 (5=81-100%) | 5 (5=81-100%) | 5 (5=81-100%) | 5 (5=81-100%) | 5 (5=81-100%) | 5 (5=81-100%) | 5 (5=81-100%) | 5 (5=81-100%) |
| FC(F)(F)c1cn(Cc2ncc(Cl)cn2)c(-n2cc(Cl)cn2)n1 [Compound 1.065, 5-chloro-2-[[2-(4-chloropyrazol-1-yl)-4-(trifluoromethyl)imidazol-1-yl]methyl]pyrimidine] | 3 (3=41-60%) | 2 (2=21-40%) | 4 (4=61-80%) | 2 (2=21-40%) | 4 (4=61-80%) | 4 (4=61-80%) | 2 (2=21-40%) | 5 (5=81-100%) | 1 (1=0-20%) | 5 (5=81-100%) |
| Cc1c(-c2nc(C(F)(F)F)cn2Cc2ncc(Cl)cn2)cnn1C [Compound 1.012, 5-chloro-2-[[2-(1,5-dimethylpyrazol-4-yl)-4-(trifluoromethyl)imidazol-1-yl]methyl]pyrimidine] | 3 (3=41-60%) | 1 (1=0-20%) | 3 (3=41-60%) | 1 (1=0-20%) | 2 (2=21-40%) | 5 (5=81-100%) | 1 (1=0-20%) | 5 (5=81-100%) | 1 (1=0-20%) | 3 (3=41-60%) |
| Cc1cc(-c2nc(C(F)(F)F)cn2Cc2ncc(Cl)cn2)n(C)n1 [Compound 1.024] | 5 (5=81-100%) | 5 (5=81-100%) | 5 (5=81-100%) | 5 (5=81-100%) | 5 (5=81-100%) | 5 (5=81-100%) | 5 (5=81-100%) | 5 (5=81-100%) | 5 (5=81-100%) | 5 (5=81-100%) |
| FC(F)(F)c1cn(Cc2ncc(Cl)cn2)c(-c2cc(Cl)sc2Cl)n1 [Compound 1.037] | 3 (3=41-60%) | 3 (3=41-60%) | 3 (3=41-60%) | 3 (3=41-60%) | 4 (4=61-80%) | 5 (5=81-100%) | 4 (4=61-80%) | 5 (5=81-100%) | 4 (4=61-80%) | 5 (5=81-100%) |
| Cc1sccc1-c1nc(C(F)(F)F)cn1Cc1ncc(Cl)cn1 [Compound 1.035] | 4 (4=61-80%) | 5 (5=81-100%) | 4 (4=61-80%) | 5 (5=81-100%) | 5 (5=81-100%) | 4 (4=61-80%) | 5 (5=81-100%) | 5 (5=81-100%) | 5 (5=81-100%) | 5 (5=81-100%) |
| Cn1ccnc1-c1nc(C(F)(F)F)cn1Cc1ncc(Cl)cn1 [Compound 1.006] | 1 (1=0-20%) | 1 (1=0-20%) | 1 (1=0-20%) | 1 (1=0-20%) | 1 (1=0-20%) | 1 (1=0-20%) | 1 (1=0-20%) | 1 (1=0-20%) | 1 (1=0-20%) | 1 (1=0-20%) |
| FC(F)(F)c1cn(Cc2ncc(Cl)cn2)c(-c2cc(Cl)c(Cl)s2)n1 [Compound 1.070] | 4 (4=61-80%) | 5 (5=81-100%) | 5 (5=81-100%) | 5 (5=81-100%) | 5 (5=81-100%) | 3 (3=41-60%) | 5 (5=81-100%) | 5 (5=81-100%) | 5 (5=81-100%) | 5 (5=81-100%) |
